Assay [1] relates to C33A cells. Kind of assay: TRAIL-mediated apoptosis in HPV− C33A cells (MTT). In kind it is cell-based, human. Conditions: 100 μM myricetin pretreatment 4 h, TRAIL + cycloheximide. Here is the method:
Figure 5 Myricetin and spinacine (5) can re-sensitize HPV^+, but not HPV^−, cells to treatment with TRAIL. SiHa (2 × 10^4 cells per well) and C33A cells (1 × 10^4 cells per well) were seeded into a 96-well plate and allowed to incubate overnight, and then cells were pretreated in the presence or absence of (a) myricetin (100 μM) or (b) spinacine (50 μM) for 4 h. The indicated concentration of TRAIL along with cycloheximide (5 μg/ml) was added, and the cells were allowed to incubate overnight. Cell viability was measured by MTT assay, and the viability of cells untreated with TRAIL was set at 100%. Experiments were performed in triplicate, and error bars indicate the S.D.
(§1) The extracellular domain of human TRAIL was cloned into a pTriEx expression plasmid containing N-terminal Hisx6 tag. His-TRAIL was expressed in the E. coli BL-21 pLys strain and purified as previously described. Doxorubicin and cisplatin were purchased from Sigma. His-TRAIL, doxorubicin, and cisplatin were diluted in PBS to the desired concentration before using. […] All experiments were repeated at least three times (three biological replicates, carried out on different days), with each experimental group measured in triplicate within each of these individual experiments. […]

For assay [2], the target named is T1, GST-E6/His-E6AP (Human papillomavirus type 16, UniProt P03126).
T1 construct: made in house
T1 sequence (P03126 whole entry): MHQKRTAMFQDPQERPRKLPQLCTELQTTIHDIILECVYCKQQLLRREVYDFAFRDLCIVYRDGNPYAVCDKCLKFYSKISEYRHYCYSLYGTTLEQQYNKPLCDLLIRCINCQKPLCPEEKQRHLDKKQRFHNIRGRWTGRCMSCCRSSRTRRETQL
Kind of assay: AlphaScreen bead-based binding assay GST-E6/His-E6AP. Also noted: species or system HPV 16. The method, then:
(§2) Figure 2 3-(1H-indol-1yl)propan-1-amine (1), three benzimidazole derivatives (2–4), and spinacine (5) inhibit protein–protein interactions. Five compounds at the indicated concentrations (1.4 μM–3.2 mM) were tested using our bead-based screening assay for their ability to inhibit three different protein/protein interactions: (a) GST-E6/His-caspase 8; (b) GST-E6/HisE6AP; and (c) GST-caspase 8/His-caspase 8. Binding in the presence of 1.4 μM of the test compound was set at 100%. Experiments were performed in triplicate, and error bars indicate the S.D.
(§3) The construction of the pGEX-E6, pTriEx-E6AP, and pTriEx-Caspase-8 DED plasmids has been reported.[33] Expression and purification of GSTE6, His-E6AP, and His-Caspase-8 DED were carried out as previously described.[33], [37] GST-tagged and His-tagged proteins were diluted into GST dilution buffer (PBS pH 8.0, 5% glycerol, 2 mM DTT) and His dilution buffer (20 mM Hepes pH 7.4, 150 mM NaCl, 2 mMKCl, 5% glycerol, 2 mM DTT), respectively. Protein concentration was measured using Coomassie Plus – The Better Bradford Assay Reagent (Thermo Scientific, Waltham, MA, USA). Purity of the isolated proteins was estimated following separation by sodium dodecyl sulfate-polyacrylamide gel electrophoresis (SDS-PAGE) and Coomassie staining.
(§4) AlphaScreen Technology was used to assess the interactions between GST-E6, GST-caspase 8, His-E6AP, and His-caspase 8. Binding assays were performed in white 384-well plates (Perkin-Elmer) in a total volume of 25 μl as previously described.[33] Briefly, 5 μl (50 ng) of GST-E6 and 5 μl (87.5 ng) of His-caspase 8 were included in each reaction mixture with 5 μl blocking buffer (0.5 mg BSA, 0.5% Tween 20 in PBS) in the absence or presence of 10 μM of each test chemical. Members of the library were present at 10 μM in DMSO. After a 1-h incubation of the mixture at room temperature, 5 μl donor beads and 5 μl acceptor beads (Perkin-Elmer) were added to each well according to the manufacturer's protocol. The mixture was incubated in the dark at room temperature overnight, and the emitted signal was detected using the Envision Multilabel plate reader (Perkin-Elmer). In the presence of test chemicals, the binding affinity was calculated as a percentage of the binding in the presence of carrier only (DMSO).

Assay [3] has as its system UM-SCC47-TC-Clone 3. The assay can be described thus: Sensitization to doxorubicin in HPV+ HNSCC line UM-SCC47-TC-Clone 3 (MTT). The format is cell-based, human. The following applies: HPV+ #47CL3, 12.5 μM compound 4 h, 2 μM doxorubicin. The method, then: (§5) Figure 8 Myricetin and spinacine (5) can re-sensitize HPV^+, but not HPV^−, HNSCC cell lines to treatment with doxorubicin. Two HPV^− (UMMSCC 29 and SCC 84) and three HPV^+ (UMSCC 47, UPCI-SCC90-UP-Clone 35, and UM-SCC47-TC Clone 3) head and neck cancer cell lines (2 × 10^4 cells per well) were seeded into 96-well plates and allowed to incubate overnight, and then cells were pretreated with myricetin or spinacine (0–12.5 μM) for 4 h. In all, 2 μM of doxorubicin was added, and the cells were allowed to incubate overnight. Cell viability was measured by MTT assay, and the viability of cells untreated with small molecules was set at 100%. Experiments were performed in triplicate, and error bars indicate the S.D.
as §1

Assay [4] has as its system UMSCC 47. Kind of assay: Sensitization to doxorubicin in HPV+ HNSCC line UMSCC 47 (MTT). In kind it is cell-based, human. Conditions: HPV+ #47, 12.5 μM compound 4 h, 2 μM doxorubicin. Here is the method:
as §5, §1

The subject of assay [5] is UPCI-SCC90-UP-Clone 35. Kind of assay: Sensitization to doxorubicin in HPV+ HNSCC line UPCI-SCC90-UP-Clone 35 (MTT). The format is cell-based, human. The following applies: HPV+ #90, 12.5 μM compound 4 h, 2 μM doxorubicin. The method, then:
as §5, §1

Assay [6] addresses GST-caspase 8/His-caspase 8 (Homo sapiens, UniProt Q14790). Kind of assay: AlphaScreen counter-screen GST-caspase 8/His-caspase 8. The format is binding. Conditions: counter-screen, bead-based assay, 1.4 μM–3.2 mM tested. The method, then:
as §2
To ask whether this inhibition was specific, we employed a counter-screening assay in which we assessed the ability of candidates to inhibit the binding of GST-caspase 8 to His-caspase 8; those that did were to be eliminated. In this counter-screening assay, the materials in each well were the same as in the primary screen, with the exception that GST-caspase 8 replaced GST-E6.
as §4

For assay [7], the target named is T2, GST-E6/His-caspase 8 (Human papillomavirus type 16, UniProt P03126).
T2 construct: made in house
T2 sequence (P03126 whole entry): as above
The assay can be described thus: AlphaScreen bead-based binding assay GST-E6/His-caspase 8. Also noted: species or system HPV 16. Here is the method: as §2, §3, §4

GST-caspase 8/His-caspase 8, sequence (Q14790 1-184): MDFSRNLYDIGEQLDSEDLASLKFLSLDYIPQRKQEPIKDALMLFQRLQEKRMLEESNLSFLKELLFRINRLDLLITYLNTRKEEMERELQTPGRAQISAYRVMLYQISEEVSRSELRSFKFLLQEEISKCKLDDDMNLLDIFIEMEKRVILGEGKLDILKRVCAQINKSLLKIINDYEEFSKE

For `O=c1c(O)c(-c2cc(O)c(O)c(O)c2)oc2cc(O)cc(O)c12` [Myricetin, myricetin, reference compound], the “sensitivity of C33A cells to TRAIL-mediated apoptosis” value in assay [1] is “remained resistant”.

`O=C(O)C1Cc2[nH]cnc2CN1` (stereo not shown) [Spinacine (5), 4,5,6,7-tetrahydro-1H-imidazo[4,5–c]pyridine-6-carboxylic acid]: the values for the EC50 in assay [2] and in assay [7] were 20 µM and 17 µM, respectively. The sensitization to doxorubicin entry in assay [3], in assay [4] and in assay [5] was “up to 50%” each time. Besides, in assay [6], the “EC50 for GST-caspase 8/His-caspase 8 interaction” value is “No Inhibition”.

Values taken from PMC5154303, “Flavonol and imidazole derivatives block HPV16 E6 activities and reactivate apoptotic pathways in HPV^+ cells” (Cell Death & Disease, 2016).
